Source: patent US8207156B2, “Substituted pyrazoline compounds, their preparation and use as medicaments” (Laboratorios Del Dr. Esteve, S.A., priority 2005, dated 2012)
Where a name gives a salt, the structure may show the parent alone.

Biological target: T1, CB1 receptor (UniProt P20272)
T1 construct: other: compound at 10^−7 M; radioligand [3H]-CP55940; other: compound at 10^−8 M
Experiment: In-vitro determination of affinity to CB1/CB2-receptors (radioligand [3H]-CP55940 binding)
Settings: for Inhibition [%], 10^−7 M: compound at 10^−7 M; for Inhibition [%], 10^−8 M: compound at 10^−8 M
Protocol: The in-vitro determination of the affinity of the inventive substituted pyrazoline compounds to CB1/CB2-Rezeptors is carried out as described in the publication of Ruth A. Ross, Heather C. Brockie et al., “Agonist-inverse agonist characterization at CB1 and CB2 cannabinoid receptors of L-759633, L759656 and AM630”, British Journal of Pharmacology, 126, 665-672, (1999), whereby the transfected human CB1 and CB2 receptors of Receptor Biology, Inc. are used. The radioligand used for both receptors is [^3H]-CP55940. The respective parts of the description is hereby incorporated by reference and forms part of the present disclosure.
Binding affinity to CB1 receptor was evaluated according to a modification of the method described by Govaerts et al., Eur J Pharmac Sci 23, 233-243 (2004). The respective parts of the description is hereby incorporated by reference and forms part of the present disclosure.
Briefly, cerebellum from male wistar rats (250-300 g) were carefully dissected on ice and homogenates were prepared with Potter-Helveheim in a cold 50 mM Tris-HCl solution containing 5 mM MgCl2, 1 mM EDTA and 0.25 M sucrose, pH 7.4. The suspension was centrifuged at 1,000×g for 5 minutes. The supernatants were collected and centrifuged 50,000×g for 15 minutes. The resulting pellets were then resuspended in Tris-HCl buffer without sucrose, homogenized and incubated for 15 min at 37° C. in an orbital shaker bath and centrifuged again at 50,000×g for 15 min. Pellets were weighted, resuspended in Tris-HCl buffer without sucrose, homogenized with Ultraturrax at 13,500 rpm for 3×5 seconds and alicuoted in 0.9 ml volumes in Eppendorf tubes. Alicuotes were centrifuged at 20,800×g for 5 minutes, supernatants discarded and pellets were frozen at −80° C. until use. Total protein concentration was determined using the Bio-Rad Lowry method based kit. Competitive binding experiments were performed in presence of 1 nM [^3H]-CP 55,940 in siliconized glass tubes containing 100 μg protein/tube resuspended in 1 ml final volume of 50 mM Tris-HCl, 5 mM MgCl2, 1 mM EDTA, 0.5% (w/v) bovine serum albumin, pH 7.4. Compounds were present at various concentrations and the non specific binding was determined in the presence of 10 μM HU-210. After 1 hour incubation at 30° C., the suspension was rapidly filtered through 0.5% PEI pre-treated GF/B fiber filters on a 96-well harvester and washed 3 times with 3 ml ice-cold binding buffer without bovine serum albumin. Radioactivity on filters was measured with Wallac Winspectral 1414 counter by liquid scintillation in 6 ml Ecoscint H (National Diagnostics, U.K.). Assays were made in triplicates.
Binding data were analyzed by non-linear regression with the software GraphPad Prism Version 3.03.

| Structure (SMILES) | Inhibition [%], 10^−7 M [%] | Inhibition [%], 10^−8 M [%] |
| --- | --- | --- |
| COC[C@H]1CCCN1NC(=O)C1=NN(c2ccc(Cl)cc2Cl)C(c2ccc(Cl)cc2)C1 (some centres unmarked) [Example 13, 5-(4-Chloro-phenyl)-1-(2,4-dichloro-phenyl)-4,5-dihydro-1H-pyrazole-3-carboxylic acid (2-methoxymethyl-pyrrolidin-1-yl)-amide] | 31.8 | 14.3 |
| CCCCNC(=O)C1=NN(c2ccc(Cl)cc2Cl)C(c2ccc(Cl)cc2)C1 (centres unmarked) [Example 72, 5-(4-Chloro-phenyl)-1-(2,4-dichloro-phenyl)-4,5-dihydro-1H-pyrazole-3-carboxylic acid butylamide] | 19.6 | −10.2 |
| CN(C)CCCNC(=O)C1=NN(c2ccc(Cl)cc2Cl)C(c2ccc(Cl)cc2)C1 (centres unmarked) [Example 73, 5-(4-Chloro-phenyl)-1-(2,4-dichloro-phenyl)-4,5-dihydro-1H-pyrazole-3-carboxylic acid (3-dimethylamino-propyl)-amide] | −18.9 | 15.7 |
| O=C(NCCC1CCCC1)C1=NN(c2ccc(Cl)cc2Cl)C(c2ccc(Cl)cc2)C1 (centres unmarked) [Example 87, 5-(4-Chloro-phenyl)-1-(2,4-dichloro-phenyl)-4,5-dihydro-1H-pyrazole-3-carboxylic acid (2-cyclopentyl-ethyl)-amide] | 15.2 | −2.4 |
| COc1ccc(C2CC(C(=O)O)=NN2c2ccc(Cl)cc2Cl)cc1 (centres unmarked) [Example 127, 1-(2,4-Dichloro-phenyl)-5-(4-methoxy-phenyl)-4,5-dihydro-1H-pyrazole-3-carboxylic acid] | 7.8 | 7.4 |
| COc1ccc(C2CC(C(=O)NC3CCCCCC3)=NN2c2ccc(Cl)cc2Cl)cc1 (centres unmarked) [Example 132, 5-(4-methoxyphenyl)-1-(2,4-dichloro-phenyl)-4,5-dihydro-1H-pyrazole-3-carboxylic acid cycloheptylamide] | 37.8 | 18.2 |
| Cl.O=C(NN1CCCCCCC1)C1=NN(c2ccc(Cl)cc2Cl)C(c2ccc(Cl)cc2)C1 (centres unmarked) [Example 145, 5-(4-Chloro-phenyl)-1-(2,4-dichloro-phenyl)-4,5-dihydro-1H-pyrazole-3-carboxylic acid azocan-1-ylamide hydrochloride] | 57.6 | 12.3 |
| COc1ccc(C2CC(C(=O)NN3CCCCCCC3)=NN2c2ccc(Cl)cc2Cl)cc1 (centres unmarked) [Example 148, 5-(4-methoxy-phenyl)-1-(2,4-dichloro-phenyl)-4,5-dihydro-1H-pyrazole-3-carboxylic acid azocan-1-ylamide] | 80.3 | 56.1 |
| Cl.O=C(NN1CCCCC1)C1=NN(c2ccc(Cl)cc2Cl)C(c2ccc(O)cc2)C1 (centres unmarked) [Example 172, 1-(2,4-Dichloro-phenyl)-5-(4-hydroxy-phenyl)-4,5-dihydro-1H-pyrazole-3-carboxylic acid piperidin-1-ylamide hydrochloride] | 1.4 | 5.6 |
| Cl.O=C(NN1CCCCCCC1)C1=NN(c2ccc(Cl)cc2Cl)[C@@H](c2ccc(Cl)cc2)C1 [Example 176, (R)-5-(4-Chloro-phenyl)-1-(2,4-dichloro-phenyl)-4,5-dihydro-1H-pyrazole-3-carboxylic acid azocan-1-ylamide hydrochloride] | 71.3 | 29.5 |
| Cl.O=C(NN1CCCCCCC1)C1=NN(c2ccc(Cl)cc2Cl)[C@H](c2ccc(Cl)cc2)C1 [Example 177, (S)-5-(4-Chloro-phenyl)-1-(2,4-dichloro-phenyl)-4,5-dihydro-1H-pyrazole-3-carboxylic acid azocan-1-ylamide hydrochloride] | 22.2 | −5.4 |
| Cl.O=C(NN1CCc2ccccc21)C1=NN(c2ccc(Cl)cc2Cl)C(c2ccc(F)cc2)C1 (centres unmarked) [Example 179, 1-(2,4-Dichloro-phenyl)-5-(4-fluoro-phenyl)-4,5-dihydro-1H-pyrazole-3-carboxylic acid (2,3-dihydro-indol-1-yl)-amide hydrochloride] | 33.9 | 11.5 |
| O=C(O)C1=NN(c2ccc(Cl)cc2Cl)C(c2ccc(O)cc2)C1 (centres unmarked) [Example 180, 1-(2,4-Dichloro-phenyl)-5-(4-hydroxy-phenyl)-4,5-dihydro-1H-pyrazole-3-carboxylic acid] | 9.3 | 4.7 |
| Cl.O=C(NN1CCc2ccccc21)C1=NN(c2ccc(Cl)cc2Cl)[C@H](c2ccc(Cl)cc2)C1 [Example 182, (S)-5-(4-Chloro-phenyl)-1-(2,4-dichloro-phenyl)-4,5-dihydro-1H-pyrazole-3-carboxylic acid (2,3-dihydro-indol-1-yl)-amide hydrochloride] | 31.7 | 18.8 |
| Cl.O=C(NN1CCCCCC1)C1=NN(c2ccc(Cl)cc2Cl)[C@H](c2ccc(Cl)cc2)C1 [Example 183, (S)-5-(4-Chloro-phenyl)-1-(2,4-dichloro-phenyl)-4,5-dihydro-1H-pyrazole-3-carboxylic acid azepan-1-ylamide hydrochloride] | 31.9 | 3.2 |
| O=C(NN1CC2CCCC2C1)C1=NN(c2ccc(Cl)cc2Cl)[C@H](c2ccc(Cl)cc2)C1 (stereo partly drawn) [Example 184, (S)-5-(4-Chloro-phenyl)-1-(2,4-dichloro-phenyl)-4,5-dihydro-1H-pyrazole-3-carboxylic acid (hexahydro-cyclopenta[c]pyrrol-2-yl)-amide hydrochloride] | 24.8 | 5.7 |
| O=C(NN1CCCCCC1)C1=NN(c2ccc(Cl)cc2Cl)[C@H](c2ccc(Cl)cc2)C1 [Example 185, (S)-5-(4-Chloro-phenyl)-1-(2,4-dichloro-phenyl)-4,5-dihydro-1H-pyrazole-3-carboxylic acid azepan-1-ylamide] | 34.1 | −11.6 |
| O=C(NC1CCCCCC1)C1=NN(c2ccc(Cl)cc2Cl)[C@H](c2ccc(Cl)cc2)C1 [Example 186, (S)-5-(4-Chloro-phenyl)-1-(2,4-dichloro-phenyl)-4,5-dihydro-1H-pyrazole-3-carboxylic acid cycloheptylamide] | 28.1 | 3.2 |
| CN1CCN(C(=O)C2=NN(c3ccc(Cl)cc3Cl)C(c3ccc(Cl)cc3)C2)CC1.Cl (centres unmarked) [Example 195, [5-(4-Chloro-phenyl)-1-(2,4-dichloro-phenyl)-4,5-dihydro-1H-pyrazole-3-yl]-(4-methyl-piperazin-1-yl)-methanone hydrochloride] | 5.8 | 4.7 |
